# Reference: ChEMBL document CHEMBL1201862, “PubChem BioAssay data set” (2004)
# The source made the active and inactive calls.
# Columns and labels:
# [1] = human group III sPLA2 inhibitors, dose response, biochemical, QFRET, IC50 (AID 743457);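 also: green fluorescence rise as the enzyme cleaves BODIPY PC-A2 in liposomes; potency for inhibition of the enzyme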
# Major prion protein = Major prion protein (Homo sapiens, UniProt P04156); assay type: functional, cell-based
# [2] = off-target signal loss in HeLa-CEM21 co-culture – HeLa F-luc CTL cells, cherry-picked, counter-screen for HIV-1 Env fusion inhibitor project, dose response (AID 652040); assay type: functional, cell-based;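 also: potency for signal decrease marking cytotoxic or nonspecific inhibition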
# [3] = target: T1, Orexin/Hypocretin receptor type 1 (Homo sapiens, UniProt O43613); assay: (§1) Fluorescence-based cell-based high throughput dose response assay for antagonists of the orexin 1 receptor (OX1R; HCRTR1). [Related pubchem assays (depositor defined):AID434989, AID435008, AID463079, AID485270, AID492963, AID492964, AID492965, AID493232, AID504717, AID504718]; assay type: functional
# T1 sequence (O43613 whole entry): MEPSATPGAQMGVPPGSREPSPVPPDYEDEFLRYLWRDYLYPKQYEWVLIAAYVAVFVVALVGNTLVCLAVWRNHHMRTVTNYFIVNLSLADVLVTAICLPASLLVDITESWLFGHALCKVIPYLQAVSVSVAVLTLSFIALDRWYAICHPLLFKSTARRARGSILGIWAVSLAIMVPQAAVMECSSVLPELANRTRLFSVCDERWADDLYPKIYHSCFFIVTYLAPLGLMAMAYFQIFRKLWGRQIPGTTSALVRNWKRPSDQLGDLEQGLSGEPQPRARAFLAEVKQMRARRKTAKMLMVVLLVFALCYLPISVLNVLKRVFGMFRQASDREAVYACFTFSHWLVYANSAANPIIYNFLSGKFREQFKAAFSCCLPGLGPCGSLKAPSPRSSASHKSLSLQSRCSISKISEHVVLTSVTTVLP
# X-box-binding protein 1 = target: T2, X-box-binding protein 1 (Homo sapiens, UniProt P17861); assay type: functional, Cricetulus griseus;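 also: confirmatory dose-response counter-screen serving a CHOP assay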
# T2 sequence (P17861 whole entry): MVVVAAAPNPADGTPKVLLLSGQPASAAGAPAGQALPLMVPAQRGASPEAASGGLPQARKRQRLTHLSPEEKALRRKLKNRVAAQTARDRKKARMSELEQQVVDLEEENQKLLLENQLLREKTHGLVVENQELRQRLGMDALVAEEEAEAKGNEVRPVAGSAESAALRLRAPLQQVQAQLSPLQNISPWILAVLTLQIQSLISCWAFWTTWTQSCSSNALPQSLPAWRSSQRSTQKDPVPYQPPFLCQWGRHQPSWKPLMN
# INS1 = assay: beta cell apoptosis inhibitors, cytokine rescue, dose response, luminescence, retest (AID 449756); assay type: functional, cell-based; conditions: Rattus norvegicus;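 also: cell death triggered by IL-1 beta plus TNF-alpha plus IFN-gamma mixture; protective hits raise ATP signal compared with cytokine alone wells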
# [4] = target: T1, Orexin/Hypocretin receptor type 1; assay: as §1, with “Homogeneous Time Resolved Fluorescence (HTRF)-based” for “Fluorescence-based”; assay type: functional
# Orexin receptor type 2 [5] = target: T3, Orexin receptor type 2 (Homo sapiens, UniProt O43614); assay: Counterscreen assay for antagonists of the orexin 1 receptor (OX1R; HCRTR1): Fluorescence-based cell-based dose response assay for antagonists of the orexin 2 receptor (OX2R; HCRTR2), run by assay provider.; assay type: functional
# T3 sequence (O43614 whole entry): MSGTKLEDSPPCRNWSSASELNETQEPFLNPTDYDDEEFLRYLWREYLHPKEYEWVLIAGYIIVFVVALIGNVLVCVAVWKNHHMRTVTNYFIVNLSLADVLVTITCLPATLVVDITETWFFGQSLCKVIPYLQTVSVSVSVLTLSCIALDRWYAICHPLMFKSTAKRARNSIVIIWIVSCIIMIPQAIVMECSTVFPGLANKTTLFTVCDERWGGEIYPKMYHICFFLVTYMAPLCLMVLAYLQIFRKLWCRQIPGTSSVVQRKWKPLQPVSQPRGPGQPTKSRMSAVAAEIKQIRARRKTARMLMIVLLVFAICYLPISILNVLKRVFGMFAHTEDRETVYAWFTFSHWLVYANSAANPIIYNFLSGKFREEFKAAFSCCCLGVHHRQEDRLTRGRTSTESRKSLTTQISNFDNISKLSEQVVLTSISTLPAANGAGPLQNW
# HEK293 [6] = assay: HEK cell cytotoxicity by LDH release, dose response, cytotoxicity control for IDE activator project, fluorescence, HEK cells (AID 588440); assay type: functional, cell-based; conditions: Homo sapiens;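 also: cytotoxicity by LDH release measuring loss of membrane integrity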
# [7] = ZM109 Env clade C HIV-1 fusion inhibitors, dose response, HeLa effector, CEM target cells, luciferase, cherry-pick (AID 652058); assay type: functional, cell-based
# [8] = inhibitors of HIV Env-driven cell fusion, dose response, cherry-pick (AID 652057); assay type: functional, cell-based
# Orexin receptor type 2 [9] = target: T3, Orexin receptor type 2; assay: Counterscreen assay for antagonists of the orexin 1 receptor (OX1R; HCRTR1): Homogeneous Time Resolved Fluorescence (HTRF)-based cell-based dose response assay for antagonists of the orexin 2 receptor (OX2R; HCRTR2), run by assay provider.; assay type: functional
# [10] = (§2) Counterscreen for antagonists of the orexin 1 receptor (OX1R; HCRTR1): Fluorescence-based cell-based high throughput dose response assay to identify antagonists of the parental CHO cell line. [Related pubchem assays (depositor defined):AID434989, AID435008, AID463079, AID485270, AID492963, AID492964, AID492965, AID493232, AID504699, AID504701]; assay type: functional
# HEK293 [11] = assay: optical interference in Abeta FP readout, dose response, artefact control for IDE activator project, biochemical, fluorescence polarization (AID 588442); assay type: functional, cell-based; conditions: Homo sapiens
# [12] = inhibitors of clade B AD8 Env fusion, dose response, cell-based, cherry-pick (AID 652062); assay type: functional;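 also: luciferase signal from cell-cell fusion driven by HIV-1 clade B AD8 Env; potency is for inhibitors of fusion seen as a drop in luminescence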
# [13] = CEM21 lymphoblast cell cytotoxicity, dose response, cytotoxicity control for viral fusion inhibitor project, CellTiter-Glo luminescence, cherry-picked (AID 652042); assay type: functional, cell-based;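 also: potency for signal decrease meaning cytotoxicity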
# Insulin-degrading enzyme [14] = target: T4, Insulin-degrading enzyme (Homo sapiens, UniProt P14735); assay: activators of endogenous IDE in HEK cells, dose response, cell-based, fluorescence polarization (AID 588439); assay type: functional
# T4 sequence (P14735 whole entry): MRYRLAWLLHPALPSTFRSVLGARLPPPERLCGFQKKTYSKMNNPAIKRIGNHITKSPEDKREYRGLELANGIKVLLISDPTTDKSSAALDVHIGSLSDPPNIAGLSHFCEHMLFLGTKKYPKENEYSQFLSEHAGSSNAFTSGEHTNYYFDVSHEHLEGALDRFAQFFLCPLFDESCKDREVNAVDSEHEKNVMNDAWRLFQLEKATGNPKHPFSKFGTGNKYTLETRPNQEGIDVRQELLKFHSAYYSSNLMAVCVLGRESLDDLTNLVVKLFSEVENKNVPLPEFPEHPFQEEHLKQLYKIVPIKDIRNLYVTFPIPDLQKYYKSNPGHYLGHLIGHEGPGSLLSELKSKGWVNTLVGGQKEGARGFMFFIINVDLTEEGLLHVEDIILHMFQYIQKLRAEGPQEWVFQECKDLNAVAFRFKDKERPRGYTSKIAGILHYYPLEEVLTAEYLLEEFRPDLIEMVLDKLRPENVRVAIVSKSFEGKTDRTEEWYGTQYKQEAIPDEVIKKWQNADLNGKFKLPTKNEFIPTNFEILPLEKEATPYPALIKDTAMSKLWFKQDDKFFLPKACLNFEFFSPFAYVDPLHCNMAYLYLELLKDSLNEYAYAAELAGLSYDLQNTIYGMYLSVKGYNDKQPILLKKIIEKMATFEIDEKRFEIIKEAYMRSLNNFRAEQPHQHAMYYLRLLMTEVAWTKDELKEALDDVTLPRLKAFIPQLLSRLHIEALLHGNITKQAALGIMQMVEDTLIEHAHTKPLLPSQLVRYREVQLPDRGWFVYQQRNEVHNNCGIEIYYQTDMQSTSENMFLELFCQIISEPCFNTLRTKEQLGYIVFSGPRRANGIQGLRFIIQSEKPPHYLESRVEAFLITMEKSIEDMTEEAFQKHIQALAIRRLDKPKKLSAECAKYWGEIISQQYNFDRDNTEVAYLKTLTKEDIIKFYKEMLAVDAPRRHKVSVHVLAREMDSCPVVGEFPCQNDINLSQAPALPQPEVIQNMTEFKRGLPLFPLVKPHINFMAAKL
# CHO-K1 = assay: as §2, with “Homogeneous time resolved fluorescence (HTRF)-based” for “Fluorescence-based”, “cell-based” for “cell-based high throughput”, “CHO-K1” for “CHO”; assay type: functional; conditions: Cricetulus griseus;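 also: potency for inhibition of ATP-stimulated IP1 production as antagonists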
# Insulin-degrading enzyme [15] = target: T4, Insulin-degrading enzyme; assay: activators of recombinant IDE enzyme, dose response, counter-screen for IDE activator project, biochemical, fluorescence polarization (AID 588681)
smiles,measurement,setting,value
CCCCC(=O)Nc1ccc(C(=O)NNC(=S)NC(=O)c2cccs2)cc1,IC50,[1],63.5 µM (inactive)
COc1ccccc1Cn1c(=S)[nH]c2ccccc2c1=O,IC50,Major prion protein,3.49 µM (active)
same,IC50,cells,> 138 µM (inactive)
CCN(CC)c1ccc(-c2nnc(S)n2-c2ccccc2)cc1,IC50,[1],> 122 µM (inactive)
COc1ccc(OCc2n(CC(=O)OC3CC(C)CCC3C(C)C)c3ccccc3[n+]2C)cc1.[Cl-] (stereo unspecified),AC50,[2],17.2 µM (active)
same,IC50,[3],8.69 µM (active)
same,Absolute IC50 (XBP1),X-box-binding protein 1,10 µM
same,AC50,INS1,3.9 µM (active)
same,IC50,[4],63.1 µM (inactive)
same,IC50,Orexin receptor type 2 [5],8.9 µM (active)
same,IC50,HEK293 [6],17 µM (inactive)
same,AC50,[7],16.4 µM (active)
same,AC50,[8],9.99 µM (active)
same,IC50,Orexin receptor type 2 [9],> 50 µM (inactive)
same,IC50,[10],15.3 µM (inactive)
same,EC50,HEK293 [11],> 54.7 µM (inactive)
same,AC50,[12],11 µM (active)
same,AC50,[13],9.49 µM (active)
same,EC50,Insulin-degrading enzyme [14],15.5 µM (inactive)
same,IC50,CHO-K1,> 66.2 µM (inactive)
same,EC50,Insulin-degrading enzyme [15],> 54.7 µM (inactive)
